Source: patent US8592436B2, “Arylamide pyrimidone derivatives” (Sanofi, priority 2007, dated 2013)

Tests used:
GSK3β = GSK3β (Homo sapiens, UniProt P49841); assay: Inhibitory activity against GSK3β (33P-ATP phosphorylation of prephosphorylated GS1 peptide, two protocols); assay type: biochemical; conditions: protocol used not stated
Protocol: Two different protocols can be used. In a first protocol: 7.5 μM of prephosphorylated GS1 peptide and 10 μM ATP (containing 300,000 cpm of ^33P-ATP) were incubated in 25 mM Tris-HCl, pH 7.5, 0.6 mM DTT, 6 mM MgCl2, 0.6 mM EGTA, 0.05 mg/ml BSA buffer for 1 hour at room temperature in the presence of GSK3beta (total reaction volume: 100 microliters). In a second protocol: 4.1 μM of prephosphorylated GS1 peptide and 42 μM ATP (containing 260,000 cpm ^33P-ATP) were incubated in 80 mM Mes-NaOH, pH 6.5, 1 mM Mg acetate, 0.5 mM EGTA, 5 mM 2-mercaptoethanol, 0.02% Tween 20, 10% glycerol buffer for 2 hours at room temperature in the presence of GSK3beta. Inhibitors were solubilized in DMSO (final solvent concentration in the reaction medium, 1%). The reaction was stopped with 100 microliters of a solution made of 25 g polyphosphoric acid (85% P2O5), 126 ml 85% H3PO4, H2O to 500 ml and then diluted to 1:100 before use. An aliquot of the reaction mixture was then transferred to Whatman P81 cation exchange filters and rinsed with the solution described above. Incorporated ^33P radioactivity was determined by liquid scintillation spectrometry. The phosphorylated GS-1 peptide had the following sequence: NH2-[…](P)EDEE-COOH. SEQ ID NO: 1 (Woodgett, J. R. (1989) Analytical Biochemistry 180, 237-241.

Sequence of GSK3β (P49841 whole entry): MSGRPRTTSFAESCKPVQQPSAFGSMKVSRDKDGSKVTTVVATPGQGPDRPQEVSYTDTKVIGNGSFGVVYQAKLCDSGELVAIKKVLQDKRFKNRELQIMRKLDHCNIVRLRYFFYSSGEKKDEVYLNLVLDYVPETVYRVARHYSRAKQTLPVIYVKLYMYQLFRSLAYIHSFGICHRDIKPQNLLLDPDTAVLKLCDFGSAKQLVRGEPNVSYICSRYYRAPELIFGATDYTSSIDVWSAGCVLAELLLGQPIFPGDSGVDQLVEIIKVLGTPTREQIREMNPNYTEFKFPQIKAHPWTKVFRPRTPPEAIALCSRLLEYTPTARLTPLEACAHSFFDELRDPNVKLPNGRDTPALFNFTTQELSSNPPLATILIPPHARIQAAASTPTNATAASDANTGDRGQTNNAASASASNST

- IC50 (GSK3β): 23 nM
- melting point: 239 to 241 °C
SMILES: COc1ccccc1C(=O)NCc1nc(-c2ccncn2)cc(=O)n1C [compound 1, 2-Methoxy-N-(1-methyl-6-oxo-1,6-dihydro-[4,4′]bipyrimidinyl-2-ylmethyl)-benzamide]
